The assay addresses T1, human FPTase (Homo sapiens, UniProt P49354+P49356).
T1 construct: made in house
Briefly: In vitro inhibition of human farnesyl-protein transferase ([3H]-FPP incorporation into Ras-CVIM). It counts as biochemical. The note with it: 100 nM Ras-CVIM, 30 min, read-out: IC50, inhibitory activity against human FPTase.

We go through two molecules from US5789438A, “Inhibitors of farnesyl-protein transferase” (Merck & Co., Inc., priority 1997, dated 1998).

Each structure is given as a SMILES string.

As to `CC(=O)O[C@H]1CC[C@]2(C)[C@H]3Cc4c(O)cc5c(c4O[C@@]3(C)CC[C@H]2C1(C)C)COC5=O` [Compound II], the IC50 – broadly, the concentration that inhibits the measured activity by half – is under 20 µM. Under `COC1OC(OC)c2c1cc(O)c1c2O[C@@]2(C)CC[C@H]3C(C)(C)[C@@H](OC(C)=O)CC[C@]3(C)[C@H]2C1` (some centres unmarked) [Compound I] stands under 20 µM.
